Test results taken from patent US10040838B2, “CRHR2 peptide agonists and uses thereof” (JANSSEN PHARMACEUTICA NV, priority 2008, dated 2018).
Residues, ends and D or L forms follow the SMILES beside them. No end group written: not given here. *: point of attachment. Succinimide(1-Et,3-yl) = CCN1C(=O)CC(*)C1=O

Molecular target: T1, human CRHR2 (Homo sapiens, UniProt Q13324)
T1 construct: expressed in transfected cells
T1 sequence (Q13324 1-411): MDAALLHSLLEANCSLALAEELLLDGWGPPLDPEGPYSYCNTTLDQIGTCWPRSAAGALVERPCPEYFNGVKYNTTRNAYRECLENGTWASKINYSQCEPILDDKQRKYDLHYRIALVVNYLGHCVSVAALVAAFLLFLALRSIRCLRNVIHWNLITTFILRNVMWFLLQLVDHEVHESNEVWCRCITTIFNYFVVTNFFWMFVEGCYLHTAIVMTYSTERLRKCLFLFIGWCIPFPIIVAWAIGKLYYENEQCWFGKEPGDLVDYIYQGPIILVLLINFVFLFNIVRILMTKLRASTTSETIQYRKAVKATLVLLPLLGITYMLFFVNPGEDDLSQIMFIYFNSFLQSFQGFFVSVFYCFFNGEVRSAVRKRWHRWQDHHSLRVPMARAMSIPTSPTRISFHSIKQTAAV
Experiment: cAMP assay in h-CRHR2 transfected SK-N-MC cells
Assay type: cell-based
Details: for Log DR: Table 13, h-SCP control pA50 minus test compound pA50 within same assay batch; for nH: Table 12, Hill slope
Method: The concentration required for 50% maximum effect (A50) was 0.4 nM.
Human CRHR1 (accession number X72304) or CRHR2 (accession number U34587) were cloned into pcDNA3.1/Zeo expression vector and stably transfected into SK-N-MC cells by electroporation. Cells were maintained in MEM w/Earl's Salt with 10% FBS, 50 I.U. penicillin, 50 μg/ml streptomycin, 2 mM L-glutamine, 1 mM sodium pyruvate and 0.1 mM nonessential amino acids, 600 μg/ml G418. Cells were grown at 37° C. in 5% CO2.
Cells were plated in 96-well tissue culture dishes (Biocoat from BD Biosciences) overnight at 50,000 cell/well. Cells were washed with PBS then resuspended in DMEM F-12 without phenol red, containing 10 μM isobutylmethylxanthine (IBMX). Cells were incubated with the peptides at concentrations ranging from 1 pM to 10 μM for 60 min at 37° Celsius. […] Forskolin (10 μM), a direct stimulant of adenylate cyclase, was used as positive control. The assays were stopped by the addition of 0.5 M HCl and mixing by orbital rotation for 2 h at 4° Celsius.
To assess the activity of the inventive peptide at the CRHR2, an intracellular cAMP measurement test using a Flash plate radioactive assay (Catalog No. Cus56088; Perkin Elmer, MA, U.S.A.) was employed.
Transfected SK-N-MC cells were plated in 96-well Biocoat tissue culture dishes (BD Biosciences, San Jose, Calif., U.S.A) overnight at 50,000 cell/well. Cells were first washed with PBS and then suspended with DMEM/F-12 without phenol red, containing […]. Suspended cells were transferred into a 96-well flash plate coated with scintillant fluid. Cells were incubated with peptides ranging from […], for 60 min, at 37° Celsius. Forskolin at 10 μM was used as positive control. After ligand stimulation, cells were lysed by the addition of 0.5M HCl and mixed by orbital rotation for 2 h at 4° Celsius in order to release intracellular cAMP into the media.
Media containing released intracellular cAMP was transferred to a 96-well flash plate coated with scintillant fluid containing an anti-cAMP antibody. In this assay, intracellular cAMP competes with ^125I-labeled cAMP binding to the antibody. To generate a standard curve, cAMP ranging from 2.5 to 250 pmoles/ml was included in the experiment. [^125I]-cAMP was measured on a TopCount scintillation counter (Perkin Elmer, MA, U.S.A).
Individual agonist concentration-response curve data were fitted to the Hill equation, see formula below, using GraphPad Prism (Graphpad Software, La Jolla, Calif., U.S.A.), to provide estimates of agonist concentration needed to generate one-half maximal response (A50), and the maximal asymptote (α) and Hill slope (nH) parameters. In this equation, [A] is the agonist concentration and E is the measured effect:
For display purposes the mean fitted parameter estimates were used to generate a single E/[A] curve shown superimposed on the mean experimental data. Potency estimates for agonists, pA50, are expressed as the negative logarithm of the midpoint of each curve and listed with their standard error of measurement (SEM). Logarithm base 10 of the agonist dose ratio (Log DR) values were calculated by subtraction of the test compound pA50 value from the corresponding h-SCP (SEQ ID NO:1) control pA50 value within the same assay batch. The SEM values of the Log DR values are given by the square root of the sum of the squared SEM values of the h-SCP (SEQ ID NO:1) control and test compound pA50 values.
Human and rat peptides (see Table 10) were used on the stimulation of h-CRHR1 or h-CRHR2 transfected SK-N-MC cells in the cAMP flash plate assay. Peptides were incubated for 1 hr at 37° Celsius. Curves were calculated using non-linear regression sigmoidal concentration-response analysis calculation in GraphPad Prism. The so obtained pA50 values are shown in Table 11 in addition to literature values. […]

## CC[C@H](C)[C@H](NC(=O)[C@H](CC(N)=O)NC(=O)[C@H](Cc1ccccc1)NC(=O)[C@H](CC(C)C)NC(=O)[C@H](CC(C)C)NC(=O)[C@H](CC(N)=O)NC(=O)[C@H](CCSC)NC(=O)[C@@H](NC(=O)[C@H](CC(N)=O)NC(=O)[C@@H](NC(=O)[C@@H]1CCCN1C(=O)[C@@H](NC(=O)[C@H](CC(=O)O)NC(=O)[C@H](CC(C)C)NC(=O)[C@H](CO)NC(=O)[C@H](CC(C)C)NC(=O)[C@@H](NC(=O)[C@H](Cc1ccccc1)NC(=O)[C@H](CCCCN)NC(=O)[C@@H](N)[C@@H](C)O)[C@@H](C)O)C(C)C)[C@@H](C)O)[C@@H](C)CC)C(=O)N[C@@H](C)C(=O)N[C@@H](CCCCN)C(=O)N[C@@H](C)C(=O)N[C@@H](CCCCN)C(=O)N[C@@H](CC(N)=O)C(=O)N[C@@H](CC(C)C)C(=O)N[C@@H](CCCNC(=N)N)C(=O)N[C@@H](C)C(=O)N[C@@H](CCC(N)=O)C(=O)N[C@@H](C)C(=O)N[C@@H](C)C(=O)N[C@@H](C)C(=O)N[C@@H](CC(N)=O)C(=O)N[C@@H](C)C(=O)N[C@@H](Cc1c[nH]cn1)C(=O)N[C@@H](CC(C)C)C(=O)N[C@@H](CCSC)C(=O)N[C@@H](C)C(=O)N[C@@H](CCC(N)=O)C(=O)N[C@@H](CSC1CC(=O)N(CC)C1=O)C(N)=O (some centres unmarked) [SEQ ID NO: 42, TKFTLSLDVPTNIMNLLFNIAKAKNLRAQAAANAHLMAQC(-NES)-NH2] (H-TKFTLSLDVPTNIMNLLFNIAKAKNLRAQAAANAHLMAQC(Succinimide(1-Et,3-yl))-NH2; N-terminus assumed)
  Log DR: ~1.72

## TKFTLSLDVPTNIMNCLFNIAKAKNLRAQAAANAHLMAQI-NH2 [SEQ ID NO: 17, TKFTLSLDVPTNIMNCLFNIAKAKNLRAQAAANAHLMAQI-NH2]
  Log DR: 0.02

## CC[C@H](C)[C@H](NC(=O)[C@H](CCC(N)=O)NC(=O)[C@H](C)NC(=O)[C@H](CCSC)NC(=O)[C@H](CC(C)C)NC(=O)[C@H](Cc1c[nH]cn1)NC(=O)[C@H](C)NC(=O)[C@H](CC(N)=O)NC(=O)[C@H](C)NC(=O)[C@H](C)NC(=O)[C@H](C)NC(=O)[C@H](CCC(N)=O)NC(=O)[C@H](C)NC(=O)[C@H](CCCNC(=N)N)NC(=O)[C@H](CC(C)C)NC(=O)[C@H](CC(N)=O)NC(=O)[C@H](CCCCN)NC(=O)[C@H](C)NC(=O)[C@H](CCCCN)NC(=O)[C@H](C)NC(=O)[C@@H](NC(=O)[C@H](CC(N)=O)NC(=O)[C@H](Cc1ccccc1)NC(=O)[C@H](CSC1CC(=O)N(CC)C1=O)NC(=O)[C@H](CC(C)C)NC(=O)[C@H](CC(N)=O)NC(=O)[C@H](CCSC)NC(=O)[C@@H](NC(=O)[C@H](CC(N)=O)NC(=O)[C@@H](NC(=O)[C@@H]1CCCN1C(=O)[C@@H](NC(=O)[C@H](CC(=O)O)NC(=O)[C@H](CC(C)C)NC(=O)[C@H](CO)NC(=O)[C@H](CC(C)C)NC(=O)[C@@H](NC(=O)[C@H](Cc1ccccc1)NC(=O)[C@H](CCCCN)NC(=O)[C@@H](N)[C@@H](C)O)[C@@H](C)O)C(C)C)[C@@H](C)O)[C@@H](C)CC)[C@@H](C)CC)C(N)=O (some centres unmarked) [SEQ ID NO: 53, TKFTL SLDVP TNIMN LC(-NES)FNI AKAKN LRAQA AANAH LMAQI-NH2] (H-TKFTLSLDVPTNIMNLC(Succinimide(1-Et,3-yl))FNIAKAKNLRAQAAANAHLMAQI-NH2; N-terminus assumed)
  Log DR: ~2.22

## TKFTLSLDVPTCIMNLLFNIAKAKNLRAQAAANAHLMAQI-NH2 [SEQ ID NO: 13, TKFTLSLDVPTCIMNLLFNIAKAKNLRAQAAANAHLMAQI-NH2]
  Log DR: −0.01

## DVPTNIMNLLFNIAKAKNLRAQAAANAHLMAQI-NH2 [SEQ ID NO: 112, DVPTNIMNLLFNIAKAKNLRAQAAANAHLMAQI-NH2]
Tested as antagonists of h-SCP at 10 μM, read-out: receptor affinity (KA)
  Kd: < 10 µM

## LSLDVPTNIMNLLFNIAKAKNLRAQAAANAHLMAQI-NH2 [SEQ ID NO: 109, LSLDVPINIMNLLFNIAKAKNLRAQAAANAHLMAQI-NH2]
  nH: 0.74

## TKFTLSLDVPTNIMNLLFNIAKAKCLRAQAAANAHLMAQI-NH2 [SEQ ID NO: 26, TKFTLSLDVPTNIMNLLFNIAKAKCLRAQAAANAHLMAQI-NH2]
  Log DR: 0.08

## KFTLSLDVPTNIMNLLFNIAKAKNLRAQAAANAHLMAQI-NH2 [SEQ ID NO: 107, KFTLSLDVPTNIMNLLFNIAKAKNLRAQAAANAHLMAQI-NH2]
  nH: 1.07

## CC[C@H](C)[C@H](NC(=O)[C@H](CCC(N)=O)NC(=O)[C@H](C)NC(=O)[C@H](CCSC)NC(=O)[C@H](CC(C)C)NC(=O)[C@H](Cc1c[nH]cn1)NC(=O)[C@H](C)NC(=O)[C@H](CC(N)=O)NC(=O)[C@H](C)NC(=O)[C@H](C)NC(=O)[C@H](C)NC(=O)[C@H](CCC(N)=O)NC(=O)[C@H](C)NC(=O)[C@H](CCCNC(=N)N)NC(=O)[C@H](CC(C)C)NC(=O)[C@H](CC(N)=O)NC(=O)[C@H](CCCCN)NC(=O)[C@H](C)NC(=O)[C@H](CCCCN)NC(=O)[C@H](C)NC(=O)[C@H](CSC1CC(=O)N(CC)C1=O)NC(=O)[C@H](CC(N)=O)NC(=O)[C@H](Cc1ccccc1)NC(=O)[C@H](CC(C)C)NC(=O)[C@H](CC(C)C)NC(=O)[C@H](CC(N)=O)NC(=O)[C@H](CCSC)NC(=O)[C@@H](NC(=O)[C@H](CC(N)=O)NC(=O)[C@@H](NC(=O)[C@@H]1CCCN1C(=O)[C@@H](NC(=O)[C@H](CC(=O)O)NC(=O)[C@H](CC(C)C)NC(=O)[C@H](CO)NC(=O)[C@H](CC(C)C)NC(=O)[C@@H](NC(=O)[C@H](Cc1ccccc1)NC(=O)[C@H](CCCCN)NC(=O)[C@@H](N)[C@@H](C)O)[C@@H](C)O)C(C)C)[C@@H](C)O)[C@@H](C)CC)C(N)=O (some centres unmarked) [SEQ ID NO: 51, TKFTL SLDVP TNIMN LLFNC(-NES) AKAKN LRAQA AANAH LMAQI-NH2] (H-TKFTLSLDVPTNIMNLLFNC(Succinimide(1-Et,3-yl))AKAKNLRAQAAANAHLMAQI-NH2; N-terminus assumed)
  Log DR: 0.68

## TKFTLCLDVPTNIMNLLFNIAKAKNLRAQAAANAHLMAQI-NH2 [SEQ ID NO: 7, TKFTLCLDVPTNIMNLLFNIAKAKNLRAQAAANAHLMAQI-NH2]
  Log DR: 2.08

## TKFTLSLDVPCNIMNLLFNIAKAKNLRAQAAANAHLMAQI-NH2 [SEQ ID NO: 12, TKFTLSLDVPCNIMNLLFNIAKAKNLRAQAAANAHLMAQI-NH2]
  Log DR: 1.72
